From patent US10829796B2, “Bacteria identification and antimicrobial susceptibility test” (priority 2015, dated 2020)

Tested on: bacteria in clinical bovine mastitis milk samples
Test: Combined bacteria identification and antimicrobial susceptibility test (colour of wells, MIC) on clinical bovine mastitis milk samples
Assay type: cell-based
Description: Clinical bovine mastitis milk samples were collected by a vet clinic in South Island, New Zealand. Samples were stored in the freezer for several months and shipped frozen to the testing facility. In this Example, the term “clinical” means that dairy cows had clinical symptoms of an udder infection e.g. cow behaved unusual, milk clots, swollen udder among other typical symptoms. Testing was executed in microwell plate comprising of 24 wells (3×8 wells).
In addition, 20 ul of clinical mastitis sample was added to each well with a laboratory pipette.
Abbreviations • 1. 80 ul GC+10 ul Tell: 80 ul Giolitti Cantoni base broth+10 ul Tellurite solution (1%); • 2. 80 ul TSB/Esc/Fer Cit: 80 ul Tryptic soy broth containing 0.25% Esculin and 0.125% Ammonium Ferric Citrate; • 3. 80 ul TSB/Esc/Fer Cit+10 ul Genta: 80 ul Tryptic soy broth containing 0.25% Esculin and 0.125% Ammonium Ferric Citrate+10 ul of Gentamycin solution 10 mg/ml; • 4. 80 ul McC/PR25: 80 ul MacConkey broth (single strength) containing 0.0125% phenol red; and • 5. 80 ul TSB/PR25: 80 ul Tryptic soy broth containing 0.0125% phenol red. Bacteria Identification
Columns A to C and rows 1 and 2 were used for bacteria identification. A1: coagulase positive Staph; A2: Staphylococci; B1: Strep group D; B2: Strep group D; C1: general enrichment media (gram+ and gram-bacteria); C2: coliform bacteria.
Column A3 to A8: serial dilution of benzyl penicillin as potassium. Column B3 to B8: serial dilution of ceftiofur as hydrochloride. Column C3 to C8: serial dilution of cloxacillin as sodium. Antibiotic concentrations are listed as free form ranging between 4 ug/ml to 0.05 ug/ml.
Minimum inhibitory substance concentration (MIC) is here defined as the concentration if a colour change occurs between two wells (one well remains red with drug concentration 1, the other one yellow with drug concentration 2, whereas drug concentration 1 is larger than drug concentration 2) then the MIC is the value of drug concentration 1.
Table 21 indicates the microwell plate configuration #1; Drugs: Benzylpenicillin as potassium; Cloxacillin as sodium; Ceftiofur as hydrochloride; Drug concentration in each well (A3 to C8) is based on 80 μl composition+10 μl drug solution+20 μl clinical mastitis milk sample and equivalent to listed drug concentration in μg/ml; 20 ul of clinical bovine mastitis milk sample was added to each well (A1 to C8).
In addition, each well received one drop of clinical sample from a transfer pipette which was on average about 35 mg. This was determined through weighing the well plate prior and after the addition of clinical mastitis samples. This weight was then divided by 24.
• 1. 80 ul GC+10 ul Tell: 80 ul Giolitti Cantoni base broth+10 ul Tellurite solution (1%); • 2. 80 ul TSB/Esc/Fer Cit: 80 ul Tryptic soy broth containing 0.25% Esculin and 0.125% Ammonium Ferric Citrate; • 3. 80 ul TSB/Esc/Fer Cit+10 ul Genta: 80 ul Tryptic soy broth containing 0.25% Esculin and 0.125% Ammonium Ferric Citrate+10 ul of Gentamycin solution 10 mg/ml; • 4. 80 ul McC/PR25: 80 ul MacConkey broth (single strength) containing 0.0125% phenol red; and • 5. 80 ul TSB/PR25: 80 ul Tryptic soy broth containing 0.0125% phenol red.
Columns A to C and rows 1 and 2 were used for bacteria identification. A1: coagulase positive Staph; A2: Staphylococci; B1: Strep Group D; B2: -; C1: general enrichment media (gram+ and gram-); C2: coliform bacteria.
Column A3 to A8: serial dilution of benzyl penicillin as potassium. Drug concentrations given as free form ranging between 4 ug/ml to 0.05 ug/ml. Column B3 to B8: serial dilution of ceftiofur as hydrochloride. Drug concentrations given as free form ranging between 4 ug/ml to 0.05 ug/ml. Column C3 to C8: serial dilution of cloxacillin as sodium. Drug concentrations given as free form ranging between 4 ug/ml to 0.05 ug/ml.

**Q.** With `CO/N=C(\C(=O)N[C@@H]1C(=O)N2C(C(=O)O)=C(CSC(=O)c3ccco3)CS[C@H]12)c1csc(N)n1` [ceftiofur] as the compound, how does the “Colour of media in each well” value (ID 1, T = 22 h, 37° C., plate configuration #1, drug 0.05 μg/ml) read?
**A.** yellow

**Q.** What about the “Colour of media in each well” value (ID 1, T = 22 h, 37° C., plate configuration #1, drug 0.1 μg/ml) of the same compound?
**A.** yellow

**Q.** And the “Colour of media in each well” value (ID 1, T = 22 h, 37° C., plate configuration #1, drug 0.5 μg/ml)?
**A.** red

**Q.** What about the “Colour of media in each well” value (ID 1, T = 22 h, 37° C., plate configuration #1, drug 1 μg/ml) of the same compound?
**A.** red

**Q.** What about the “Colour of media in each well” value (ID 1, T = 22 h, 37° C., plate configuration #1, drug 2 μg/ml) of the same compound?
**A.** red

**Q.** And the “Colour of media in each well” value (ID 1, T = 22 h, 37° C., plate configuration #1, drug 4 μg/ml)?
**A.** red

**Q.** What about the “Colour of media in each well” value (ID 2, T = 48 h, 37° C., plate configuration #1, drug 0.05 μg/ml) of the same compound?
**A.** yellow

**Q.** What about the “Colour of media in each well” value (ID 2, T = 48 h, 37° C., plate configuration #1, drug 0.1 μg/ml) of the same compound?
**A.** yellow

**Q.** And the “Colour of media in each well” value (ID 2, T = 48 h, 37° C., plate configuration #1, drug 0.5 μg/ml)?
**A.** yellow

**Q.** What about the “Colour of media in each well” value (ID 2, T = 48 h, 37° C., plate configuration #1, drug 1 μg/ml) of the same compound?
**A.** red

**Q.** What about the “Colour of media in each well” value (ID 2, T = 48 h, 37° C., plate configuration #1, drug 2 μg/ml) of the same compound?
**A.** red

**Q.** What about the “Colour of media in each well” value (ID 2, T = 48 h, 37° C., plate configuration #1, drug 4 μg/ml) of the same compound?
**A.** red

**Q.** And the “Colour of media in each well” value (ID 3, T = 22 h, 37° C., plate configuration #1, drug 0.05 μg/ml)?
**A.** red

**Q.** What about the “Colour of media in each well” value (ID 3, T = 22 h, 37° C., plate configuration #1, drug 0.1 μg/ml) of the same compound?
**A.** yellow

**Q.** What about the “Colour of media in each well” value (ID 3, T = 22 h, 37° C., plate configuration #1, drug 0.5 μg/ml) of the same compound?
**A.** yellow

**Q.** What about the “Colour of media in each well” value (ID 3, T = 22 h, 37° C., plate configuration #1, drug 1 μg/ml) of the same compound?
**A.** red

**Q.** And the “Colour of media in each well” value (ID 3, T = 22 h, 37° C., plate configuration #1, drug 2 μg/ml)?
**A.** red

**Q.** What about the “Colour of media in each well” value (ID 3, T = 22 h, 37° C., plate configuration #1, drug 4 μg/ml) of the same compound?
**A.** red

**Q.** What about the “Colour of media in each well” value (ID 3, T = 23 h, 37° C., Table 34, drug 0.05 μg/ml) of the same compound?
**A.** red

**Q.** What about the “Colour of media in each well” value (ID 3, T = 23 h, 37° C., Table 34, drug 0.1 μg/ml) of the same compound?
**A.** yellow

**Q.** And the “Colour of media in each well” value (ID 3, T = 23 h, 37° C., Table 34, drug 0.5 μg/ml)?
**A.** yellow

**Q.** What about the “Colour of media in each well” value (ID 3, T = 23 h, 37° C., Table 34, drug 1 μg/ml) of the same compound?
**A.** red

**Q.** And the “Colour of media in each well” value (ID 3, T = 23 h, 37° C., Table 34, drug 2 μg/ml)?
**A.** red

**Q.** What about the “Colour of media in each well” value (ID 3, T = 23 h, 37° C., Table 34, drug 4 μg/ml) of the same compound?
**A.** red

**Q.** And the “Colour of media in each well” value (ID 3, T~7 h, 37° C., Table 34, drug 0.05 μg/ml)?
**A.** red

**Q.** What about the “Colour of media in each well” value (ID 3, T~7 h, 37° C., Table 34, drug 0.1 μg/ml) of the same compound?
**A.** red

**Q.** And the “Colour of media in each well” value (ID 3, T~7 h, 37° C., Table 34, drug 0.5 μg/ml)?
**A.** red

**Q.** What about the “Colour of media in each well” value (ID 3, T~7 h, 37° C., Table 34, drug 1 μg/ml) of the same compound?
**A.** red

**Q.** And the “Colour of media in each well” value (ID 3, T~7 h, 37° C., Table 34, drug 2 μg/ml)?
**A.** red

**Q.** What about the “Colour of media in each well” value (ID 3, T~7 h, 37° C., Table 34, drug 4 μg/ml) of the same compound?
**A.** red

**Q.** What about the “Colour of media in each well” value (ID 3, T~11 h, 37° C., Table 34, drug 0.05 μg/ml) of the same compound?
**A.** red

**Q.** What about the “Colour of media in each well” value (ID 3, T~11 h, 37° C., Table 34, drug 0.1 μg/ml) of the same compound?
**A.** red

**Q.** And the “Colour of media in each well” value (ID 3, T~11 h, 37° C., Table 34, drug 0.5 μg/ml)?
**A.** red

**Q.** And the “Colour of media in each well” value (ID 3, T~11 h, 37° C., Table 34, drug 1 μg/ml)?
**A.** red

**Q.** And the “Colour of media in each well” value (ID 3, T~11 h, 37° C., Table 34, drug 2 μg/ml)?
**A.** red

**Q.** What about the “Colour of media in each well” value (ID 3, T~11 h, 37° C., Table 34, drug 4 μg/ml) of the same compound?
**A.** red

**Q.** What about the “Colour of media in each well” value (ID 4, T = 22 h, 37° C., plate configuration #1, drug 0.05 μg/ml) of the same compound?
**A.** yellow

**Q.** And the “Colour of media in each well” value (ID 4, T = 22 h, 37° C., plate configuration #1, drug 0.1 μg/ml)?
**A.** yellow

**Q.** What about the “Colour of media in each well” value (ID 4, T = 22 h, 37° C., plate configuration #1, drug 0.5 μg/ml) of the same compound?
**A.** orange

**Q.** And the “Colour of media in each well” value (ID 4, T = 22 h, 37° C., plate configuration #1, drug 1 μg/ml)?
**A.** red

**Q.** And the “Colour of media in each well” value (ID 4, T = 22 h, 37° C., plate configuration #1, drug 2 μg/ml)?
**A.** red

**Q.** And the “Colour of media in each well” value (ID 4, T = 22 h, 37° C., plate configuration #1, drug 4 μg/ml)?
**A.** red

**Q.** And the “Colour of media in each well” value (ID 5, T = 23 h, 37° C., plate configuration #2, drug 0.05 μg/ml)?
**A.** yellow

**Q.** And the “Colour of media in each well” value (ID 5, T = 23 h, 37° C., plate configuration #2, drug 0.1 μg/ml)?
**A.** yellow

**Q.** What about the “Colour of media in each well” value (ID 5, T = 23 h, 37° C., plate configuration #2, drug 0.5 μg/ml) of the same compound?
**A.** red

**Q.** What about the “Colour of media in each well” value (ID 5, T = 23 h, 37° C., plate configuration #2, drug 1 μg/ml) of the same compound?
**A.** red

**Q.** And the “Colour of media in each well” value (ID 5, T = 23 h, 37° C., plate configuration #2, drug 2 μg/ml)?
**A.** red

**Q.** What about the “Colour of media in each well” value (ID 5, T = 23 h, 37° C., plate configuration #2, drug 4 μg/ml) of the same compound?
**A.** red

**Q.** And the “Colour of media in each well” value (ID 5 to 8, T = 0 h (prior incubation, reference), plate configuration #2, drug 0.05 μg/ml)?
**A.** red

**Q.** And the “Colour of media in each well” value (ID 5 to 8, T = 0 h (prior incubation, reference), plate configuration #2, drug 0.1 μg/ml)?
**A.** red

**Q.** And the “Colour of media in each well” value (ID 5 to 8, T = 0 h (prior incubation, reference), plate configuration #2, drug 0.5 μg/ml)?
**A.** red

**Q.** And the “Colour of media in each well” value (ID 5 to 8, T = 0 h (prior incubation, reference), plate configuration #2, drug 1 μg/ml)?
**A.** red
